According to patent US12617762B2, “Carboxy derivatives with antiinflamatory properties” (Sitryx Therapeutics Limited, priority 2019, dated 2026):
Read-outs that look alike come from different tables or passages of the source.

Key:
Type in all cases: cell-based
[1] = test system: IL-1β cytokine output from THP-1s; experiment: THP-1 AlphaLISA IL-1β cytokine inhibition assay; conditions: for IC50: Homo sapiens; for IL-1β lowering, result in words: THP-1 IL-1β assay
Summary of the method: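 IL-1β release by AlphaLISA, expressed as % inhibition against +/− LPS controls on each plate. Differentiation: PMA, 72 h. Sequence: 30 min compound pre-treatment, LPS 24 h, Nigericin 1 h before supernatant harvest, all at 37° C./5% CO2.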

[2] = test system: IL-6 cytokine output from THP-1s; experiment: THP-1 AlphaLISA IL-6 cytokine inhibition assay; conditions: Homo sapiens, LPS then nigericin
Experimental: The cytokine inhibition profiles of compounds of formula (I) were determined in a differentiated THP-1 cell assay. All assays were performed in RPMI-1640 growth medium (Gibco), supplemented with 10% fetal bovine serum (FBS; Gibco), 1% penicillin-streptomycin and 1% sodium pyruvate unless specified otherwise. The IL-1β cytokine inhibition assay was run in a background of differentiated THP-1 cells as described below. All reagents described were from Sigma-Aldrich unless specified otherwise. Compounds were prepared as 10 mM DMSO stocks.
THP-1 cells were expanded as a suspension up to 80% confluence in appropriate growth medium. Cells were harvested, suspended, and treated with an appropriate concentration of phorbol 12-myristate 13-acetate (PMA) over a 72 hr period (37° C./5% CO2).
Following 72 hrs of THP-1 cell incubation, cellular medium was removed and replaced with fresh growth media containing 1% of FBS. Working concentrations of compounds were prepared separately in 10% FBS treated growth medium and pre-incubated with the cells for 30 minutes (37° C./5% CO2). Following the 30 minute compound pre-incubation, THP-1s were treated with an appropriate concentration of LPS and the cells were subsequently incubated for a 24 hr period (37° C./5% CO2). An appropriate final concentration of Nigericin was then dispensed into the THP-1 plates and incubated for 1 hour (37° C./5% CO2) before THP-1 supernatants were harvested and collected in separate polypropylene 96-well holding plates.
Reagents from an IL-1β and IL-6 commercial kit (Perkin Elmer) were prepared and run according to the manufacturer's instructions. Subsequently, fluorescence signal detection in a microplate reader was measured (EnVision® Multilabel Reader, Perkin Elmer).
Percentage inhibition was calculated per cytokine by normalising the sample data to the high and low controls used within each plate (+/− LPS respectively).

[3] = test system: NRF2 (nuclear factor erythroid 2-related factor 2); experiment: NRF2 +/-GSH activation assay (DiscoverX PathHunter NRF2 translocation kit, U2OS cells); conditions: for NRF2 activation +GSH Emax / NRF2 activation −GSH Emax / −GSH Emax: normalised to DMF high control
Summary of the method: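 Activation is expressed as percent of plate DMF (high) versus no-DMF (low) controls, from luminescence after 6 h compound exposure at 37 °C of U2OS PathHunter cells. The +GSH condition used compound pre-incubated 30 min in 6 mM working GSH; −GSH cells received compound directly.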

[4] = THP-1, differentiated THP-1 cells, LPS then nigericin
[5] = +GSH, 30 minute compound-GSH pre-incubation, read-out: NRF2 activation +GSH EC50
[6] = −GSH, U2OS PathHunter cells, 6 hours compound treatment, read-out: NRF2 activation −GSH EC50
[7] = THP-1, differentiated THP-1 cells
[8] = THP-1, Table 3, head to head comparison of exo vs endo double bond compounds
[9] = −GSH, Table 5 exo vs endo comparison, read-out: −GSH EC50
[10] = −GSH, Table 5 exo vs endo comparison

IC50 ([2]; differentiated THP-1 cells) [µM] | EC50 [3, 6] [µM] | IC50 [1, 8] [µM] | EC50 [3, 9] [µM] | Compound | IC50 [1, 4] [µM] | EC50 [3, 5] [µM] | NRF2 activation +GSH Emax ([3]; +GSH) [%] | NRF2 activation −GSH Emax ([3]; −GSH) [%] | IL-1β lowering, result in words [1] | IC50 [2, 7] [µM] | −GSH Emax [3, 10] [%]
> 100 | 52.5 |  |  | C=C(C(=O)O)C1(c2nc(C(F)(F)c3ccc(C(F)(F)F)cc3)no2)CC1 [Example 173, 2-(1-(3-(difluoro(4-(trifluoromethyl)phenyl)methyl)-1,2,4-oxadiazol-5-yl)cyclopropyl)acrylic acid] | 7.6 | 61.1 | 2.1 | 64 |  |  | 
40.6 | > 54.8 |  |  | C=C(Cc1cccc(C2(c3ccc(Cl)cc3)CC2)n1)C(=O)O [Example 175, 2-((6-(1-(4-chlorophenyl)cyclopropyl)pyridin-2-yl)methyl)acrylic acid] | 62.2 | > 100 | 4.0 | 43 |  |  | 
20.2 | > 100 | > 31.6 | > 100 | C/C(=C\c1nc(C2(c3ccc(S(F)(F)(F)(F)F)cc3)CC2)no1)C(=O)O [Example 169] | > 31.6 | > 100 | 15.4 | 43 |  |  | 43
 |  |  |  | C=C(Cc1nc(C2(c3ccc(OC(F)F)cc3)CC2)no1)C(=O)O [Example 78, 2-((3-(1-(4-(difluoromethoxy)phenyl)cyclopropyl)-1,2,4-oxadiazol-5-yl)methyl)acrylic acid] | 24.3 |  |  |  |  | > 100 | 
67.5 | > 100 |  |  | C=C(C(=O)O)C(C)(C)c1nc(C2(c3ccc(C(F)(F)F)cc3)CC2)no1 [Example 172] | 5.1 | > 100 | 7.6 | 0 |  |  | 
 |  |  |  | C=C(Cc1nc(Cc2ccc(CC(C)(C)C)cc2)no1)C(=O)O [Example 69, 2-((3-(4-neopentylbenzyl)-1,2,4-oxadiazol-5-yl)methyl)acrylic acid] | 48.6 |  |  |  |  | 10.1 | 
32.4 | 16.7 |  |  | C=C(Cc1nc(C2(c3ccc(C)c(Cl)c3)CC2)no1)C(=O)O [Example 141, 2-((3-(1-(3-chloro-4-methylphenyl)cyclopropyl)-1,2,4-oxadiazol-5-yl)methyl)acrylic acid] | > 56.2 | 20.1 | 100 | 177 |  |  | 
 |  |  |  | C=C(Cc1nc(-c2ccc(CCCC)cc2)co1)C(=O)O [Example 101, 2-((4-(4-butylphenyl)oxazol-2-yl)methyl)acrylic acid] | 52.4 |  |  |  |  | 4.6 | 
21 | 38.7 | > 31.6 | 38.7 | C/C(=C\c1nc(C2(c3ccc(SC(F)(F)F)cc3)CC2)no1)C(=O)O [Example 170] | > 31.6 | 34.9 | 96.5 | 177 |  |  | 177
39.3 | 18.6 |  |  | C=C(Cc1ncc(CCCCCCCC)cn1)C(=O)O [Example 106] | 67.8 | 24.6 | 101 | 143 |  |  | 
55.9 | > 100 |  |  | C=C(C(=O)O)C1(c2nc(C3(c4ccc(C(F)(F)F)cc4)CC3)no2)CC1 [Example 156, 2-(1-(3-(1-(4-(trifluoromethyl)phenyl)cyclopropyl)-1,2,4-oxadiazol-5-yl)cyclopropyl)acrylic acid] | 5.3 |  | −16.4 | 0 |  |  | 
 |  |  |  | C=C(Cc1nc(-c2ccc(CCC(F)(F)F)cc2)no1)C(=O)O [Example 73, 2-((3-(4-(3,3,3-trifluoropropyl)phenyl)-1,2,4-oxadiazol-5-yl)methyl)acrylic acid] | > 100 |  |  |  | not effective | 10.4 | 
 |  |  |  | C=C(Cc1nc(-c2ccc(CCC3CC3)cc2)no1)C(=O)O [Example 76, 2-((3-(4-(2-cyclopropylethyl)phenyl)-1,2,4-oxadiazol-5-yl)methyl)acrylic acid] | 28.2 |  |  |  |  | 5.1 | 
7.6 | 5.4 |  |  | C=C(Cc1nc(C2(c3cc(Cl)c(Br)c(Cl)c3)CC2)no1)C(=O)O [Example 176, 2-((3-(1-(4-bromo-3,5-dichlorophenyl)cyclopropyl)-1,2,4-oxadiazol-5-yl)methyl)acrylic acid] | 3.2 |  |  | 222 |  |  | 
> 100 |  |  |  | C=C(Cc1nc(C2(c3ccc(OC)c(Cl)c3)CC2)no1)C(=O)O [Example 140, 2-((3-(1-(3-chloro-4-methoxyphenyl)cyclopropyl)-1,2,4-oxadiazol-5-yl)methyl)acrylic acid] | 29.5 |  |  |  |  |  | 
 |  |  |  | C=C(Cc1nc(C2(c3ccc(OCCCC)cc3)CC2)no1)C(=O)O [Example 80, 2-((3-(1-(4-butoxyphenyl)cyclopropyl)-1,2,4-oxadiazol-5-yl)methyl)acrylic acid] | 37.2 |  |  |  |  | 9.6 | 

Compound | IC50 ([2]; differentiated THP-1 cells) [µM] | EC50 [3, 6] [µM] | IC50 [1, 8] [µM] | EC50 [3, 9] [µM] | IC50 [1, 4] [µM] | EC50 [3, 5] [µM] | NRF2 activation +GSH Emax ([3]; +GSH) [%] | NRF2 activation −GSH Emax ([3]; −GSH) [%] | IL-1β lowering, result in words [1] | IC50 [2, 7] [µM] | −GSH Emax [3, 10] [%]
C=C(Cc1nc(CC2CCCCC2)no1)C(=O)O [Example 32, 2-((3-(cyclohexylmethyl)-1,2,4-oxadiazol-5-yl)methyl)acrylic acid] |  | 50.1 |  |  | > 100 | > 100 | 35 | 46 | not effective | > 100 | 
C=C(Cc1nc(Cc2ccc(C3(C(F)(F)F)CC3)cc2)no1)C(=O)O [Example 48, 2-((3-(4-(1-(trifluoromethyl)cyclopropyl)benzyl)-1,2,4-oxadiazol-5-yl)methyl)acrylic acid] |  | 31 |  |  | 40.2 | 50.3 | 61 | 120 |  | 38.5 | 
C=C(Cc1nc(C(C)(C)CCCCCC)no1)C(=O)O [Example 26, 2-((3-(2-methyloctan-2-yl)-1,2,4-oxadiazol-5-yl)methyl)acrylic acid] |  | 27.3 |  |  | 36.3 | 35.6 | 137 | 205 |  | 22.6 | 
C=C(Cc1nc(CCc2ccc(CC)cc2)no1)C(=O)O [Example 41, 2-((3-(4-ethylphenethyl)-1,2,4-oxadiazol-5-yl)methyl)acrylic acid] |  | 31.7 |  |  | 45.4 | 39.7 | 103 | 135 |  | 22.5 | 
C=C(Cc1nc(CCCCCCCC(F)F)no1)C(=O)O [Example 58, 2-((3-(8,8-difluorooctyl)-1,2,4-oxadiazol-5-yl)methyl)acrylic acid] |  | 26.4 |  |  | 36.9 | 30.6 | 105 | 149 |  | 16 | 
C=C(Cc1nc(-c2ccc(C(F)(F)CC)cc2)no1)C(=O)O [Example 71, 2-((3-(4-(1,1-difluoropropyl)phenyl)-1,2,4-oxadiazol-5-yl)methyl)acrylic acid] |  | 28.8 |  |  | 54.9 | 37.1 | 146 | 178 |  | 8.3 | 
C=C(Cc1nc(CCCCCC(F)(F)CC(F)(F)F)no1)C(=O)O [Example 87, 2-((3-(6,6,8,8,8-pentafluorooctyl)-1,2,4-oxadiazol-5-yl)methyl)acrylic acid] |  | 41.4 |  |  | > 100 | 48.6 | 70 | 95 | not effective | 31.7 | 
C=C(Cc1nc(CCC#CCCCC)no1)C(=O)O [Example 57, 2-((3-(oct-3-yn-1-yl)-1,2,4-oxadiazol-5-yl)methyl)acrylic acid] |  | 41.1 |  |  | > 100 | 49.9 | 56 | 102 | not effective | 24.1 | 
